Test results taken from patent US7517902B2, “Substituted indazoles, compositions containing the same, and the preparation and use thereof” (Aventis Pharma S.A., priority 2004, dated 2009).
Where a name gives a salt, the structure may show the parent alone.

Tests used:
human Tie2 = molecular target: T1, human Tie2 (Homo sapiens, UniProt Q02763); assay: Tie2 assay of PLC phosphorylation (FlashPlate); assay type: biochemical; settings: read-out: IC 50 TIE2
T1 construct: amino acids of the intracellular domain 776-1124; made in house

Aurora2 = molecular target: T2, Aurora2 (Homo sapiens, UniProt O14965); assay: Aurora2 enzyme assay, NuMA substrate phosphorylation (Flashplate); assay type: biochemical; settings: read-out: IC 50 Aurora2
T2 construct: Aurora 2: whole recombinant protein comprising an N-terminal histidine tail; His tag (histidine tail) (N); made in house; host or cells: E. coli
T2 sequence (O14965 1-403): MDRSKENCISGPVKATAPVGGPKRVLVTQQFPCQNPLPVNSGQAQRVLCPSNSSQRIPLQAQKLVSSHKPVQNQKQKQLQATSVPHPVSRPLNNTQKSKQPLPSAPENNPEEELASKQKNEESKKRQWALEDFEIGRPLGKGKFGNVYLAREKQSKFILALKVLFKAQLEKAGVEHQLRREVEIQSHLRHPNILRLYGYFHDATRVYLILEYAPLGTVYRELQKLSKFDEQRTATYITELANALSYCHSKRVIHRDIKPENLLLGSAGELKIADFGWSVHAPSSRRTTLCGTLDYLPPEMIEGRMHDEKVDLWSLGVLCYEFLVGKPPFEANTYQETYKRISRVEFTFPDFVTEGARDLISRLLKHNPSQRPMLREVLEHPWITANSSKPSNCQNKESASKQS
In short: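 Recombinant full-length N-His Aurora2 (E. coli), 10 nM, phosphorylates 500 nM His-NuMA fragment with 1 µM ATP plus [33P]ATP in Tris/HCl pH 7.5, NaCl, MgCl2, DTT, 37 °C, 30 min, on Ni-chelate Flashplates. Incorporated 33P counted by scintillation; percent inhibition versus enzyme control after background subtraction.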

T1 sequence (Q02763 776-1124): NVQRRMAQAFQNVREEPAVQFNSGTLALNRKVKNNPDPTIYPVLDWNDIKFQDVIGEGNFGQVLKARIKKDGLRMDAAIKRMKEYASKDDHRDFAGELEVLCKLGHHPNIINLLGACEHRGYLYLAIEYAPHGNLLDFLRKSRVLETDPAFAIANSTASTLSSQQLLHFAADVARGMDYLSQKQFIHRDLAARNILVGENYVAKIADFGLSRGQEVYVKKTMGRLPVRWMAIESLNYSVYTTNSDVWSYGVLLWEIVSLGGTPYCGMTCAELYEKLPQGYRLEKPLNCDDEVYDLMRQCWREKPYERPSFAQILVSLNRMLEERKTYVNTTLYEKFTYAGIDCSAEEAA

Compound | IC50 (human Tie2) [µM] | IC50 (Aurora2) [µM] | melting point [°C]
Nc1n[nH]c2cc(-c3ccc(NS(=O)(=O)c4cccc(Cl)c4Cl)cc3)ccc12 [Example 2, 1-[4-(3-Amino-1H-indazol-6-yl)phenyl]-2,3-dichlorobenzenesulfonamide hydrochloride] | 0.015 | 0.2 | –
O=C(Nc1n[nH]c2cc(-c3ccc(NS(=O)(=O)c4cccc(Cl)c4Cl)cc3)ccc12)c1ccsc1 [Example 3, 3-Thiophenecarboxylic acid {6-[4-(2,3dichlorobenzenesulfonylamino)phenyl]-1H-indazol-3-yl}amide] | 0.004 | 0.133 | 196
O=C(Nc1n[nH]c2c(F)c(-c3ccc(NS(=O)(=O)c4cccc(Cl)c4Cl)cc3)ccc12)c1ccsc1 [Example 5, 3-Thiophenecarboxylic acid {6-[4-(2,3-dichlorobenzenesulfonylamino)-7-fluorophenyl]-1H-indazol-3-yl}amide] | 0.002 | 0.037 | –
Nc1n[nH]c2c(F)c(-c3ccc(NS(=O)(=O)c4cccc(Cl)c4Cl)cc3)ccc12 [Example 8, 1-[4-(3-Amino-1H-indazol-6-yl)-7-fluorophenyl]-2,3-dichlorobenzenesulfonamide hydrochloride] | 0.01 | 0.087 | –
